Data reported in PMC6853638, “TMC1 is an essential component of a leak channel that modulates tonotopy and excitability of auditory hair cells in mice” (eLife, 2019).
Several values for one entry are separate records, joined by “and”; a condition that tells them apart may be missing. Equal values may be shown once. Blank lines part the entries; values can stand above or below the molecule they belong to.

Key:
[1] = target: T1, TMC1-mediated leak conductance (Mus musculus, UniProt Q8R4P5); test: Background/leak current (IBG) inhibition by blockers, whole-cell voltage clamp of OHCs; type: cell-based
T1 sequence (Q8R4P5 1-757): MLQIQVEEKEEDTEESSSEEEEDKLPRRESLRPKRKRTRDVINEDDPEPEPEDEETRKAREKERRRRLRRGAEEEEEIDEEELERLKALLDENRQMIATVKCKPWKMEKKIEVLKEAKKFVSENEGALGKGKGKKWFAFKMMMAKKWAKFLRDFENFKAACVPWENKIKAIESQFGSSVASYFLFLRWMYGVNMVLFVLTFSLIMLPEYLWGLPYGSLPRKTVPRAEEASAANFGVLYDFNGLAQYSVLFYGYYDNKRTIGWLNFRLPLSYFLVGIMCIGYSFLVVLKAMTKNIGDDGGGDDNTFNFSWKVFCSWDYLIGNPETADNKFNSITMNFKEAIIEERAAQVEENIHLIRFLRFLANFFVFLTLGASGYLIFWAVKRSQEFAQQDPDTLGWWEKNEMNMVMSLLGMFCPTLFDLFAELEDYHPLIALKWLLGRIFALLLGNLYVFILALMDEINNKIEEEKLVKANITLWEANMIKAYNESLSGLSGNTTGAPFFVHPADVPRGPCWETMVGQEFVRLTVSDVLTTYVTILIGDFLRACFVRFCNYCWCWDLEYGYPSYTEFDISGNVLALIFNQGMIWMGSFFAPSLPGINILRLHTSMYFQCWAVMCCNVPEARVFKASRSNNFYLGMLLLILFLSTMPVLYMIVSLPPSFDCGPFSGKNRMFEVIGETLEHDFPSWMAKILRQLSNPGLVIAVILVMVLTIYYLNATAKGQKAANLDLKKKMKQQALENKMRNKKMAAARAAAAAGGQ
Method: (§1) Hair cells were recorded using whole-cell voltage or current clamp as previously described ([Xiong et al., 2012]). All experiments were performed at room temperature (20–25°C). Briefly, the basilar membrane with hair cells was acutely dissected from neonatal mice. […] The acutely isolated or cultured basilar membrane was used for electrophysiological recording within 1 h. Hair cells were imaged under an upright microscope (BX51WI, Olympus, Tokyo, Japan) with a 60 × water immersion objective and an sCMOS camera (ORCA Flash4.0, Hamamatsu, Hamamatsu City, Japan) controlled by MicroManager 1.6 software ([Edelstein et al., 2010]). Patch pipettes were made from borosilicate glass capillaries (BF150-117-10, Sutter Instrument Co., Novato, CA) with a pipette puller (P-2000, Sutter) and polished on a microforge (MF-830, Narishige, Tokyo, Japan) to resistances of 4–6 M'Ω. […] Hair cells were recorded with a patch-clamp amplifier (EPC 10 USB and Patchmaster software, HEKA Elektronik, Lambrecht/Pfalz, Germany).
(§2) The sampling rate was 1 kHz for leak current recording, 50 kHz for the IV protocol and current-clamp recording, and 100 kHz for unitary channel recording. The voltage-clamp used a –70 mV holding potential, and the current-clamp was held at 0 pA. Only recordings with a current baseline <20 pA in NMDG solution were used for statistical analysis.
(§3) Dose-inhibition curves were fitted with a Hill equation: Ix/Imax=X^h/(K^h+X^h))
(§4) Where K is the half-inhibition dose (IC50) and h is the Hill slope. Imax is the maximal current in control condition.

MET channel [2] = target: T2, MET channel (Mus musculus, UniProt Q8R4P5); test: MET current (IMET) inhibition by blockers, whole-cell voltage clamp of OHCs with glass-probe hair-bundle deflection; type: cell-based
T2 construct: the basilar membrane with hair cells was acutely dissected from neonatal mice; endogenous in cells; host or cells: outer hair cells of acutely dissected neonatal mouse cochlea
Method: All experiments were performed at room temperature (20–25°C). Briefly, the basilar membrane with hair cells was acutely dissected from neonatal mice. […] The acutely isolated or cultured basilar membrane was used for electrophysiological recording within 1 h. […] Hair cells were recorded with a patch-clamp amplifier (EPC 10 USB and Patchmaster software, HEKA Elektronik, Lambrecht/Pfalz, Germany).
as §2
The hair bundle was deflected by two types of mechanical stimulus, fluid jet and glass probe. […] In brief, a 40 Hz sinusoidal wave stimulus was delivered by a 27-mm-diameter piezoelectric disc driven by a home-made piezo amplifier pipette with a tip diameter of 3–5 μm positioned 5–10 μm from the hair bundle to evoke maximum MET currents. […] The actuator was driven with voltage steps that were low-pass filtered at 10 KHz. To avoid bundle damage caused by overstimulation, the glass probe was shaped to have a slightly smaller diameter than the hair bundles, and the stimulation distance was 800 nm for macroscopic current and 100 nm for unitary channel recording. For hair bundle removal, a pipette with 1 μm diameter tip was used to suck away the hair bundles of the target OHCs. The hair-bundle-removed OHCs with good condition were further recorded. Examined by a fluid-jet stimulation, the OHCs without obvious MET current were further measured for the leak current.
as §3, §4

MET channel [3] = test system: MET channel; design: method as in Kim and Fettiplace, 2013; conditions: P5 apical OHCs; ref Kim and Fettiplace, 2013; cited from earlier work
MET channel [4] = target: T2, MET channel; test: Location-specific macroscopic MET current in OHCs, fluid-jet stimulation; type: cell-based; conditions: wild-type OHCs in 35 mM Ca2+
Method: (§5) Hair cells were recorded using whole-cell voltage or current clamp as previously described ([Xiong et al., 2012]). All experiments were performed at room temperature (20–25°C). Briefly, the basilar membrane with hair cells was acutely dissected from neonatal mice. […] The acutely isolated or cultured basilar membrane was used for electrophysiological recording within 1 h. Hair cells were imaged under an upright microscope (BX51WI, Olympus, Tokyo, Japan) with a 60 × water immersion objective and an sCMOS camera (ORCA Flash4.0, Hamamatsu, Hamamatsu City, Japan) controlled by MicroManager 1.6 software ([Edelstein et al., 2010]). Patch pipettes were made from borosilicate glass capillaries (BF150-117-10, Sutter Instrument Co., Novato, CA) with a pipette puller (P-2000, Sutter) and polished on a microforge (MF-830, Narishige, Tokyo, Japan) to resistances of 4–6 M'Ω. Intracellular solution contained (in mM): 140 CsCl, 1 MgCl2, 0.1 EGTA, 2 Mg-ATP, 0.3 Na-GTP, and 10 H-HEPES, pH 7.2), except when CsCl was replaced with KCl in current-clamp. Hair cells were recorded with a patch-clamp amplifier (EPC 10 USB and Patchmaster software, HEKA Elektronik, Lambrecht/Pfalz, Germany).
(§6) For single-channel recordings, we followed published procedures ([Ricci et al., 2003]; [Xiong et al., 2012]). The intracellular solution was the same for macroscopic and microscopic current recording. […] After bundle destruction, fresh external solution was given to re-establish the corresponding extracellular ionic environment. […] Only traces with obvious single-channel events were included for analyzing.
The sampling rate was 1 kHz for leak current recording, 50 kHz for the IV protocol and current-clamp recording, and 100 kHz for unitary channel recording. […]
The hair bundle was deflected by two types of mechanical stimulus, fluid jet and glass probe. […] The hair-bundle-removed OHCs with good condition were further recorded. Examined by a fluid-jet stimulation, the OHCs without obvious MET current were further measured for the leak current.

leak current in OHCs = target: T3, leak current in OHCs (Mus musculus, UniProt Q8R4P5); test: Ion-permeation tests of the leak current (ion substitution in the external solution); type: cell-based; conditions: 150 mM NaCl partially or completely replaced (150 mM CsCl; 75 mM Ca2+); compared with Na+
T3 construct: the basilar membrane with hair cells was acutely dissected from neonatal mice; endogenous in cells; host or cells: outer hair cells of acutely dissected neonatal mouse cochlea
T3 sequence (Q8R4P5 1-757): T1 sequence (Q8R4P5 1-757)
Method: as §5
(§7) In Figure 6A, LiCl and CsCl were 150 mM, completely substituting for NaCl.

MET channel [5] = target: T2, MET channel; test: MET current in graded Ca2+ and Na+ concentrations; type: cell-based; conditions: wild-type OHCs
Method: as §1
The hair bundle was deflected by two types of mechanical stimulus, fluid jet and glass probe. […] The hair-bundle-removed OHCs with good condition were further recorded. Examined by a fluid-jet stimulation, the OHCs without obvious MET current were further measured for the leak current. […]

leak current = target: T4, leak current (Mus musculus, UniProt Q8R4P5); test: Background leak current in graded Ca2+ and Na+ concentrations (wild-type and Tmc1-knockout OHCs); type: cell-based; conditions: 35 mM [Ca2+]o
T4 construct: the basilar membrane with hair cells was acutely dissected from neonatal mice; endogenous in cells; host or cells: outer hair cells of acutely dissected neonatal mouse cochlea
T4 sequence (Q8R4P5 1-757): T1 sequence (Q8R4P5 1-757)
Method: as §5, §7
The osmotic pressure of each solution was re-adjusted to 300–320 mOsm/kg with sucrose, and the pH was adjusted to 7.4.

MET channel [6] = test: Unitary MET channel current recording in OHCs; type: cell-based, mouse
Text: as §6, §2
The hair bundle was deflected by two types of mechanical stimulus, fluid jet and glass probe. The fluid jet stimulation was performed as described previously ([Beurg et al., 2014]). In brief, a 40 Hz sinusoidal wave stimulus was delivered by a 27-mm-diameter piezoelectric disc driven by a home-made piezo amplifier pipette with a tip diameter of 3–5 μm positioned 5–10 μm from the hair bundle to evoke maximum MET currents. […] The actuator was driven with voltage steps that were low-pass filtered at 10 KHz. To avoid bundle damage caused by overstimulation, the glass probe was shaped to have a slightly smaller diameter than the hair bundles, and the stimulation distance was 800 nm for macroscopic current and 100 nm for unitary channel recording. For hair bundle removal, a pipette with 1 μm diameter tip was used to suck away the hair bundles of the target OHCs. The hair-bundle-removed OHCs with good condition were further recorded. Examined by a fluid-jet stimulation, the OHCs without obvious MET current were further measured for the leak current.

T2 sequence (Q4KL25 whole entry partner, one chain of several): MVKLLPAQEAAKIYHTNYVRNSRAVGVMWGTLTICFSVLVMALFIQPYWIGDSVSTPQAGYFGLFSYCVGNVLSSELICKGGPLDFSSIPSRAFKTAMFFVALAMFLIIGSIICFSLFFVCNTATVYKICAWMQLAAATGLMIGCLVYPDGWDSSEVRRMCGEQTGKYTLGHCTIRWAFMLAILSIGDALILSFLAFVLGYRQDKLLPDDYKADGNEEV
T2 sequence (Q8K467 29-153 partner, one chain of several): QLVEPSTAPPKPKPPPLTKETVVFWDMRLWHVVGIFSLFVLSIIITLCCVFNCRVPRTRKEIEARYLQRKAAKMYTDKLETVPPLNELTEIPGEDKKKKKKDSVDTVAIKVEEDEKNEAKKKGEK
T2 sequence (Q9Z309 whole entry partner, one chain of several): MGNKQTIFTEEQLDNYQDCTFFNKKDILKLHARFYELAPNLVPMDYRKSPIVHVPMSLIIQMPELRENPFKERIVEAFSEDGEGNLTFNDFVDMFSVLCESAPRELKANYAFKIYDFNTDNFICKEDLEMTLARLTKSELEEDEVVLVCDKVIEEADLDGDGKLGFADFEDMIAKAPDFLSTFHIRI

effect on the leak current ([1]; [Gd3+]o up to 80 μM): not affected
SMILES: [Cl][Gd]([Cl])[Cl] [Gd^3+, GdCl3]

SMILES: [Gd+3] [Gd3+]
MET (normalized), first block c1-c15 (MET channel [2]; Gd3+ 4000): 0.01958 and 0.0181 and 0.03486 and 0.01803 and 0.02788 and 0.02096 and 0.03255

macroscopic IMET (MET channel [4]; location D05, holding −70 mV): –369 ± 13 pA
macroscopic IMET (MET channel [4]; location D40, holding −70 mV): –384 ± 30 pA
macroscopic IMET (MET channel [4]; location D60, holding −70 mV): –461 ± 31 pA
size of ILeak conducted by the substituted cation (leak current in OHCs): robustly blocked
[Ca2+]o after which the MET current reached a plateau, sufficient to block the leak current (MET channel [5]): > 10 mM
SMILES: [Ca+2].[Cl-].[Cl-] [Ca^2+, CaCl2]
Ca2+ permeability of the MET channel, PCa/PCs (MET channel [3]): around six
block of the leak current (leak current): sufficient to block the leak current to an extent similar to TMC1 removal in OHCs
unitary MET channel current (MET channel [6]; 35 mM Ca2+, location D05, holding −70 mV): –4.7 ± 0.1 pA
unitary MET channel current (MET channel [6]; 35 mM Ca2+, location D20, holding −70 mV): –4.8 ± 0.1 pA
unitary MET channel current (MET channel [6]; 35 mM Ca2+, location D60, holding −70 mV): –4.9 ± 0.1 pA
unitary MET channel current (MET channel [6]; 35 mM [Ca2+]o, both low-frequency and high-frequency OHCs): ~ 5 pA

SMILES: [La+3] [La3+]
met (normalized) (MET channel [2]; La3+ 4000): 0.01513 and 0.01398 and 0.02694 and 0.01393 and 0.02154 and 0.01619 and 0.02515

SMILES: N=C(N)NC(=O)c1nc(Cl)c(N)nc1N [Amiloride, amiloride]
effect on the leak current compared with the MET current ([1]; graded concentrations): affected the leak current, albeit at higher concentrations than the MET current
